In PubChem BioAssay AID602462 (NMMLSC, 2012):
Active and inactive are the calls of the source.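 The calls were made as follows: active = compounds passing through the artificial lipid membrane faster than 100 units at the neutral pH 7.4; inactive = the rest.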

Tested on: PAMPA double-sink, GIT-0 lipid, UV read-out
Assay: artificial-membrane permeation in aqueous buffer – biophysical, double-sink PAMPA, pH 5.0/6.2/7.4, ADME assay for GPR30 and estrogen receptor ligands, late-stage follow-up (AID 602462)
Details: stronger effect = higher value; for permeability Pe pH 5.0: measured here: permeability at pH 5.0; for permeability Pe pH 6.2: measured here: permeability at pH 6.2

| permeability Pe pH 7.4 | permeability Pe pH 5.0 | permeability Pe pH 6.2 | Compound |
| --- | --- | --- | --- |
| 0 10^-6 cm/s (inactive) | 0 10^-6 cm/s | 0 10^-6 cm/s | CC(=O)c1ccc2c(c1)[C@@H]1C=CC[C@@H]1[C@H](c1cc3c(cc1Br)OCO3)N2 |
| 117 10^-6 cm/s | 44 10^-6 cm/s | 120 10^-6 cm/s | COc1cc([N+](=O)[O-])cc2c1NC(C1CC=CCC1)C1CC=CC21 (stereo unspecified) |
